According to US20050143391A1, “Heterocyclic amides with alpha-4 integrin antagonist activity” (J. Uriach Y Compañia S.A., priority 2002, published 2005):

The molecules below were run against T1, integrin α4β1 (Homo sapiens, UniProt P05556+P13612) (assay: Inhibition of α4β1-dependent cell adhesion (Jurkat cells to peptide CS-1)). Conditions: adhesion of Jurkat cells to CS-1-coated plates; products preincubated with cells at 37° C. for 30 minutes; at least 6 product concentrations.
T1 construct: endogenous in cells; host or cells: Jurkat cells
Assay type: cell-based
Description: Inhibition of α4β1-Dependent Cell Adhesion
Inhibition of α4β1-dependent cell adhesion was assayed by evaluating the interaction between the peptide CS-1 (H-CLHGPEILDVPST-CONH2) and Jurkat cells (T lymphocyte cell line expressing activated integrin α4β1 but not integrin α4β7) after preincubation of said cells with the compounds of formula I to be tested. The peptide CS-1 was synthesized by conventional solid phase chemistry and purified by HPLC. Its identity was determined by elemental analysis and mass spectroscopy.
1.—Preparation of CS-1-Coated Plates
96-black well plates (Costar 3925) were used. 200 μL of 2% bovine serum albumin solution (BSA, Sigma α4503) was added per well and the plate was incubated for 2 hours at 37° C. The solution was discarded and the plate was washed twice with 200 μL of phosphate buffered saline solution (PBS, Gibco 14190-094) per well. Then, 200 μL of 10 μg/mL N-succinimidyl 3-(2-pyridyldithio)propionate solution (SPDP, Sigma P-3415) was added per well, and the plate was incubated at 37° C. for 30 minutes. The remaining solution was discarded and the plate was twice washed with 200 μL per well of PBS. Next, 200 μL of 25 μg/mL CS-1 peptide solution (equivalent to 5 μg/well) was added per well and the plate was incubated at 37° C. for 2 hours and then overnight at 4° C.
2.—Jurkat Cell Line: Culture and Fluorescent Labelling
Jurkat cells were kept in culture at a density comprised between 2×10^5 and 1.5×10^6 cells/mL in 1640 RPMI medium (Gibco 21875-034) enriched with 10% fetal calf serum (FCS, Gibco 10270-106).
50×10^6 cells were extracted, centrifuged (1200 rpm, 10 min, room temperature) and the medium was discarded. Cells were resuspended in 5 mL of RPMI, and 10 μL of a 1 mM solution of the fluorophore calceine.AM (Molecular Probes, C-3100) was added. The suspension was incubated for 30 min at 37° C. in the darkness, with occasional shaking. 40 mL of RPMI was added to stop the labelling and the suspension was centrifuged (1200 rpm, 10 min, room temperature). The medium was discarded, and the labelled cells were washed with 40 mL of RPMI in order to remove the unincorporated fluorescent probe. Finally, cells were resuspended in RPMI enriched with 10% FCS to obtain a 8×10^6 cells/mL suspension.
The plate previously prepared was twice washed with 200 μL per well of PBS and blocked with 200 μL of 1% BSA for at least 1 hour at room temperature.
The products to be tested were dissolved in dimethylsulfoxide at a concentration of 10 mM and dilutions thereof were prepared in RPMI medium enriched with 10% FCS. The products were preincubated with the Jurkat cells at 37° C. for 30 minutes, at a product concentration comprised between 1 nM and 10 μM, at a cell density of 4×10^6 cells/mL and at a maximal dimethylsulfoxide concentration of 0.1%.
100 μL of the resulting cell-product supsension was added per well (cellular density 4×10^5 cells/well). The product was omitted in the control wells and cells or CS-1 were omitted in the blanks. The plate was incubated for 60 min at room temperature in the-darkness, was twice washed with 200 μL per well of RPMI and then 100 μL of PBS was added. The plate was read with a fluorescence reader at an excitation wavelength of 485 nm and at an emission wavelength of 530 nm.
Maximal adhesion (100%) was determined as the average of the fluorescence intensities (FI) of the control wells, and the minimal adhesion as the average FI of the blanks. The adhesion inhibition percentage was determined using the following formula: [formula]
The results are expressed as the IC50 values (concentration producing 50% inhibition). IC50 values were calculated by testing at least 6 product concentrations and by adjusting the inhibition percentages to a dose-response curve of variable slope.

T1 sequence (P13612 34-1032): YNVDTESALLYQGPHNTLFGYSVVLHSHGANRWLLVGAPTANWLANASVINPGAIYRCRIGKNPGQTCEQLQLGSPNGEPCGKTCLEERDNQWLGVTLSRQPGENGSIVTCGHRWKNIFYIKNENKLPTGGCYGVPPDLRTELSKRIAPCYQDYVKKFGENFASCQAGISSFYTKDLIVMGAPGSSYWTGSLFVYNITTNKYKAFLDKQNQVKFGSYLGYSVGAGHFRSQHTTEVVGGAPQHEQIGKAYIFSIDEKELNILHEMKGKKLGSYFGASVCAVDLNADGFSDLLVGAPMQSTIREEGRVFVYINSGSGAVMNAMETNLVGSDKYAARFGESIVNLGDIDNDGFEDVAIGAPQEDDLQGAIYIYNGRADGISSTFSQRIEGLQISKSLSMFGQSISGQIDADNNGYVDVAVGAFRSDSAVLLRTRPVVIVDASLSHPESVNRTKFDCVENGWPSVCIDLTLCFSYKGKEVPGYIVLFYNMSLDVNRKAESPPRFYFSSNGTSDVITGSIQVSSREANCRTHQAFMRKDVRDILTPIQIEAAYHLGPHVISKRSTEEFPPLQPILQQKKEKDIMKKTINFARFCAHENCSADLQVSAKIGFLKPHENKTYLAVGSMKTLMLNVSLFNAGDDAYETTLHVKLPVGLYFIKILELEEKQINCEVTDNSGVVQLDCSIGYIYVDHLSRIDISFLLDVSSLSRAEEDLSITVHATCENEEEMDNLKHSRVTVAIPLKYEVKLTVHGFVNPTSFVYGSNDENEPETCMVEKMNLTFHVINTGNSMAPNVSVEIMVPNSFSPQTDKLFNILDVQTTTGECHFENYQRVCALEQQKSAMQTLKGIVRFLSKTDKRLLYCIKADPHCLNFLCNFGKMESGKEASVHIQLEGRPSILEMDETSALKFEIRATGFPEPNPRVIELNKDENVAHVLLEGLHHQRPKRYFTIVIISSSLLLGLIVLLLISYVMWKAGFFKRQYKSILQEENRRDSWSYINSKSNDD
T1 sequence (P05556 21-798): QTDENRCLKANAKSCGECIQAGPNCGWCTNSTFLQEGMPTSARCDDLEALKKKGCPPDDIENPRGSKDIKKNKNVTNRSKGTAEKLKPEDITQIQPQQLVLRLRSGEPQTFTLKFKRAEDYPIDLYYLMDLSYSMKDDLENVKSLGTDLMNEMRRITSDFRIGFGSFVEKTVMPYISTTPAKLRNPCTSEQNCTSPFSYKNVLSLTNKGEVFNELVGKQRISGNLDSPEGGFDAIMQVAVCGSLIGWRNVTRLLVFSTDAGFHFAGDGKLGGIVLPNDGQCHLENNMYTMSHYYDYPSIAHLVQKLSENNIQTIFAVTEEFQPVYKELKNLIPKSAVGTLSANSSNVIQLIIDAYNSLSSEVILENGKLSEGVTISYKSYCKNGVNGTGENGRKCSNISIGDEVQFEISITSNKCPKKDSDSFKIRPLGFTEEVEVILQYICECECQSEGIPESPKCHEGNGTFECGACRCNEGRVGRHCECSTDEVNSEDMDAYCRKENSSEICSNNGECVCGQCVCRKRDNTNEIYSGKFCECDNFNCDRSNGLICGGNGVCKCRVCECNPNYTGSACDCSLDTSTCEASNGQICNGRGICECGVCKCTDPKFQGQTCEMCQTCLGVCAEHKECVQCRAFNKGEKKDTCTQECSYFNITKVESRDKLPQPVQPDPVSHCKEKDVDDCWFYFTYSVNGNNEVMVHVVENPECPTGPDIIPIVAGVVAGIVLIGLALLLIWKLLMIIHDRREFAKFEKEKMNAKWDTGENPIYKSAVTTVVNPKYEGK

Row | Molecule | IC50 [nM]
1 | CCCc1nc2cnccc2n1CC1CCN(C(=O)CC[C@H](NC(=O)[C@@H]2CCCN2S(=O)(=O)c2cc(Cl)cc(Cl)c2)C(=O)O)CC1 [Example 119, (2S)-2-[1-(3,5-Dichlorophenylsulfonyl)-L-prolylamino]-5-oxo-5-[4-(2-propylimidazo[4,5-c]pyridin-1-ylmethyl)piperidin-1-yl]pentanoic Acid] | 49.8
2 | CCc1nc2cnccc2n1CC1CCN(C(=O)NC[C@H](NC(=O)[C@@H]2CCCN2S(=O)(=O)c2cc(Cl)cc(Cl)c2)C(=O)O)CC1 [Example 123, Lithium (2S)-2-[1-(3,5-dichlorophenylsulfonyl)-L-prolyl]amino-3-[[4-(2-ethylimidazo[4,5-c]pyridin-1-ylmethyl)piperidin-1-ylcarbonyl]amino]propionate] | 4.6
3 | (2S)-2-[1-(3,5-Dichlorophenylsulfonyl)-L-prolylamino]-5-oxo-5-[4-(1-pyrrolylmethyl)piperidin-1-yl]pentanoic Acid [Example 81] | 33
